How the values were obtained:
[1] = system: NS3-specific CD4+ T cell proliferation; experiment: in vitro recall assay, CD4+ T cell proliferation of lymph node cells, [3H] thymidine; type: in vivo, mice; settings: 100 μg rNS3 mixed with 1 mg ribavirin s.c.; ten days; 96 h culture (FIG. 9)
Method: This assay can be used with any ribavirin derivative or combinations of ribavirin derivatives to determine the extent that a particular vaccine formulation modulates a cellular immune response. […] The mice were sacrificed ten days post-immunization and their lymph nodes were harvested and drained. In vitro recall assays were then performed. (See e.g., Hultgren et al., J Gen Virol. 79:2381-91 (1998) and Hultgren et al., Clin. Diagn. Lab. Immunol. 4:630-632 (1997)). The amount of CD4^+ T cell proliferation was determined at 96 h of culture by the incorporation of [^3H] thymidine.

[2] = system: NS3; experiment: NS3-specific IgG subclasses by EIA after primary and booster injection (TABLE 18); type: in vivo, mice; settings: 10 μg rNS3 with 0.1 or 1.0 mg ribavirin at weeks 0 and 4; bled week six
Method: The mice were bled at week six and NS3-specific IgG subclasses were determined by EIA as described previously.

[3] = system: rNS3; experiment: ribavirin dose finding, rNS3-specific IgG by EIA (FIG. 8, TABLE 17); type: in vivo, mice
Method: The levels of antibody to the antigen were then determined by EIA.
A second set of experiments was also performed. […] The mice were bled at week six and rNS3-specific IgG levels were determined by EIA as described previously.

[4] = system: HBsAg; experiment: EIA end point antibody titer to HBsAg, Engerix vaccine with or without ribavirin (TABLE 19); type: in vivo, mice; settings: 1 mg ribavirin with 2 μg vaccine i.p.; booster week four, bled week six
Description: (Engerix, SKB). […] A booster containing the same mixture was given on week four and all mice were bled on week six.

[5] = system: inositol mono-phosphate (IMP) dehydrogenase (IMPDH); settings: cited from earlier work

NC(=O)c1ncn([C@@H]2O[C@H](CO)[C@@H](O)[C@H]2O)n1 [ribavirin, 1-β-D-ribofuranosyl-1,2,4-triazole-3-carboxamide]
T cell proliferative response versus 100 μg rNS3 in PBS [1]: much greater T cell proliferative response | effect on IgG subclass response [2]: does not change the IgG subclass response | effect on antibody levels ([3]; higher doses (1-10 mg) ribavirin with 20 μg rNS3, week three (FIG. 8)): enhance antibody levels at week three | effect on antibody levels ([3]; low doses (<1 mg) ribavirin with 20 μg rNS3, week one (FIG. 8)): enhance antibody levels at week one | effect on antibody levels ([3]; low doses (<1 mg) ribavirin with 20 μg rNS3, week three (FIG. 8)): not at week three | effect on antibody response to Engerix vaccine [4]: enhanced the response | mode of action on IMPDH [5]: competitive inhibitor

Reference: US7022830B2, “Hepatitis C virus codon optimized non-structural NS3/4A fusion gene” (priority 2000, dated 2006)
